Key:
[1] = molecular target: T1, Rat Striatal Nicotinic Receptors ([^3H]NIC binding) (Rattus norvegicus, UniProt P09483+P12390); assay: Inhibition of [^3H]nicotine binding to brain membranes; conditions: 3 nM [^3H]NIC; for inhibition at 0.1 µM: % inhibition at 100 nM analog, nonspecific 10 μM nicotine
T1 construct: Whole brain, excluding cortex and cerebellum, was homogenized; from tissue; host or cells: rat brain membranes (whole brain excluding cortex and cerebellum)
Experimental: (§1) Test compounds of Formula (I), representing the mono quaternary nicotine analogs of the present invention, were evaluated to determine the effect of a test compound on nicotine-binding and methyllycaconitine-binding mediated by nicotine acetylcholine receptors.
(§2) Homogenate was centrifuged (25,000 g, 15 min, 4° C.). Pellets were resuspended in 20 volumes of buffer and incubated at 37° C., for 10 min, cooled to 4° C. and centrifuged (25,000 g, 15 min, 4° C.). Pellets were resuspended and centrifuged using the same conditions. […] Upon use, final pellets were resuspended in ˜20 volumes of assay buffer. Samples (250 μl) contained 100-140 μg of membrane protein, 3 nM [^3H]nicotine or 3 nM [^3H]methyllycaconitine (MLA), and test compounds of Formula (I) (100 nM) in assay buffer containing 50 mM Tris. A control sample absent test compounds of Formula (I) was also prepared. In the [^3H]nicotine-binding assay and [^3H]MLA-binding assay, nonspecific-binding was determined in the presence of 10 μM nicotine and 10 μM MLA, respectively. Incubations proceeded for 60 min at a room temperature using 96-well plates, and were terminated by harvesting on Unifilter-96 GF/B filter plates presoaked in 0.5% polyethylenimine, using a Packard FilterMate harvester. After washing 5 times with 350 μl ice-cold assay buffer, the filter plates were dried (60 min, 4° C.), bottom-sealed, and filled with Packard's MicroScint 20 cocktail (40 μl/well). After 60 min, filter plates were top-sealed, and levels of radioactivity were determined using a Packard TopCount. Protein concentrations were determined using the Bradford dye-binding procedure using bovine serum albumin as a standard protein.
Specific binding in the [^3H]NIC binding assay is calculated as the difference between the total binding of 3 nM [^3H]NIC and nonspecific binding in the presence of 10 μM cold nicotine. […] Analog-induced inhibition of nicotine-evoked [^3H]DA release is calculated as a percent of that in the absence of the mono quaternary ammonium analog. ND indicates not determined.

[2] = molecular target: T2, Rat Striatal Nicotinic Receptors ([^3H]MLA binding) (Rattus norvegicus, UniProt Q05941); assay: Inhibition of [^3H]methyllycaconitine (MLA) binding to brain membranes; conditions: for inhibition at 0.1 µM: % inhibition at 100 nM analog, 2.5 nM [^3H]MLA, nonspecific 1 μM MLA (footnote)
T2 construct: Whole brain, excluding cortex and cerebellum, was homogenized; from tissue; host or cells: rat brain membranes (whole brain excluding cortex and cerebellum)
T2 sequence (Q05941 23-502): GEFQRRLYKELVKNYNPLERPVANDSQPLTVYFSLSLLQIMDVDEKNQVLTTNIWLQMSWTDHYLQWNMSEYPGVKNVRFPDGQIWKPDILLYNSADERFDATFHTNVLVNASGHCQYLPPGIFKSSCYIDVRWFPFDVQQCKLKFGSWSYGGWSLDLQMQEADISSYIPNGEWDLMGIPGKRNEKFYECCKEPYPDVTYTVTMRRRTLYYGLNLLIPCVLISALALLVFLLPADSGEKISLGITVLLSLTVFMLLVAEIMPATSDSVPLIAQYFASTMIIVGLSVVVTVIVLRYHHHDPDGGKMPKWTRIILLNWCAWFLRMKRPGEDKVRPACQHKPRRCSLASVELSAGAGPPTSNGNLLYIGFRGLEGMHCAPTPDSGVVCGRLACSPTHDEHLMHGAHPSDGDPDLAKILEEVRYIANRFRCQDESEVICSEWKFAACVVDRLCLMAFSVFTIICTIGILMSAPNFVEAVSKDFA
Experimental: as §1
as §2, with “Samples (250 μl) contained 100-140 μg of membrane protein, 3 nM [^3H]nicotine or 3 nM [^3H]methyllycaconitine (MLA), and test compounds of Formula (I) (100 nM) in assay buffer containing 50 mM Tris.” left out, “In the [^3H]nicotine-binding assay and [^3H]MLA-binding assay, nonspecific-binding was determined in the presence of 10 μM nicotine and 10 μM MLA, respectively.” left out, “protein. […]” for “protein.”

[3] = tested on: nicotinic receptors, NIC-evoked [^3H]DA release from rat striatal slices; assay: Inhibition of nicotine-evoked [^3H]dopamine release from superfused rat striatal slices; assay type: cell-based; conditions: 1 h, 100 nM analog superfused 60 minutes prior to NIC (10 μM)
Experimental: Rat striatal slices (500 μm thickness, 6-8 mg wet weight) were incubated for 30 minutes in Krebs buffer (118 mM NaCl, 4.7 mM KCl, 1.2 mM MgCl2, 1.0 mM NaH2PO4, 1.3 mM CaCl2, 11.1 mM glucose, 25 mM NaHCO3, 0.11 mM L-ascorbic acid, and 0.004 mM disodium EDTA at pH 7.4, and saturated with 95% O2/5% CO2) in a metabolic shaker at 34° C. Slices were rinsed with 15 mL of fresh buffer, and were incubated for an additional 30 minutes in fresh buffer containing 0.1 μM [^3H]dopamine (DA; 6 slices/3 mL). Subsequently, slices were rinsed with 15 mL of fresh buffer and transferred to a glass superfusion chamber. Slices were superfused (1.0 mL/min) for 60 minutes with Krebs buffer containing nomifensine (10 μM) and pargyline (10 μM), and maintained at 34° C., pH 7.4, with continual aeration (95% O2/5% CO2). Two five minute samples (5 mL each) were collected to determine basal outflow of [^3H]DA. The test compounds of Formula (I) were added to the superfusion buffer after the collection of the second sample, and were maintained in the buffer until 12 consecutive five minute samples were collected. Subsequently, S-(−)-nicotine (10 μM) was added to the buffer, and an additional 12 consecutive five minute samples were collected. At the end of the experiment, each slice was solubilized, and the [^3H]content of the tissue determined.
Radioactivity in the superfusate and tissue samples was determined by liquid scintillation spectroscopy. Fractional release of tritium collected in each sample was divided by the total tritium present in the tissue at the time of sample collection, and the fractional release of tritium collected was expressed as a percentage of total tritium. Basal [^3H]outflow was calculated from the average of the tritium collected in the two five minute samples just before addition of a test compound of Formula (I). The sum of the increase in collected tritium resulting from either exposure to a test compound of Formula (I), or exposure to S(−) nicotine in the absence and presence of a test compound of Formula (I) equaled total [^3H]overflow. [^3H]Overflow was calculated by subtracting the [^3H]outflow during an equivalent period of pre-stimulation from the values in samples collected during and after drug exposure. Inasmuch as the radio-labeled compounds were not separated and identified, the tritium collected in superfusate is referred to as either [^3H]outflow or [^3H]overflow, rather than as [^3H]DA. [^3H]Overflow primarily represents [^3H]DA in the presence of nomifensine and pargyline in the superfusion buffer.
The quaternary analogs of Formula (I) were also evaluated for their ability to inhibit NIC-evoked [^3H]DA release. In these experiments, the striatal slices were superfused for 60 minutes with 100 nM concentration of the quaternary analogs prior to NIC (10 μM) exposure. Antagonist activity was evaluated by comparing the NIC-evoked [^3H]overflow in the absence and presence of the analogs. The relative order of potency of the quaternary analogs of Formula (I) for inhibition of NIC-evoked [^3H]DA release from rat striatal slices is illustrated in Table 1.
^aData are % inhibition at 100 nM concentration of the mono quaternary analogs for at least 1-3 independent experiments; with the exception of when a Ki value in μM is provided, in which case a full concentration effect was evaluated. Specific binding in the [^3H]NIC binding assay is calculated as the difference between the total binding of 3 nM [^3H]NIC and nonspecific binding in the presence of 10 μM cold nicotine. Specific binding for the [^3H]MLA binding assay is calculated as the difference between the total binding of 2.5 nM [^3H]MLA to the receptors alone and its nonspecific binding in the presence of 1 μM cold MLA. Analog-induced inhibition of nicotine-evoked [^3H]DA release is calculated as a percent of that in the absence of the mono quaternary ammonium analog. ND indicates not determined.

T1 sequence (P09483 31-630): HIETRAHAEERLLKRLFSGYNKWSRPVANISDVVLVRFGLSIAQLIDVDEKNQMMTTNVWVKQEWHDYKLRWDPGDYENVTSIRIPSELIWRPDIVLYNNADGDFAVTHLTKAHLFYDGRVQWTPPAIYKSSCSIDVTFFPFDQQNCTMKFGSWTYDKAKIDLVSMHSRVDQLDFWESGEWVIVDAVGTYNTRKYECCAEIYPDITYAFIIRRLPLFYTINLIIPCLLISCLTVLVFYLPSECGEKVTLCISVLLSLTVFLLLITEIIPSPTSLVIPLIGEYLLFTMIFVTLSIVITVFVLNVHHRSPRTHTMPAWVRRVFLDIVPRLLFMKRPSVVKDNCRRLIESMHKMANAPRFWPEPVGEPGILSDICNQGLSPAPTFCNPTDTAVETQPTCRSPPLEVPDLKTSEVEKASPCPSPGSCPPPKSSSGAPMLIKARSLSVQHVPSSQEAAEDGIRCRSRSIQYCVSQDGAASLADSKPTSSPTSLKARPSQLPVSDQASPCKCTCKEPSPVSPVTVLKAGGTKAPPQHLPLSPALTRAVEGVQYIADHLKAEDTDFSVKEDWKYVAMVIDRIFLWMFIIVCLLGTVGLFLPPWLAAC
T1 sequence (P12390 25-500): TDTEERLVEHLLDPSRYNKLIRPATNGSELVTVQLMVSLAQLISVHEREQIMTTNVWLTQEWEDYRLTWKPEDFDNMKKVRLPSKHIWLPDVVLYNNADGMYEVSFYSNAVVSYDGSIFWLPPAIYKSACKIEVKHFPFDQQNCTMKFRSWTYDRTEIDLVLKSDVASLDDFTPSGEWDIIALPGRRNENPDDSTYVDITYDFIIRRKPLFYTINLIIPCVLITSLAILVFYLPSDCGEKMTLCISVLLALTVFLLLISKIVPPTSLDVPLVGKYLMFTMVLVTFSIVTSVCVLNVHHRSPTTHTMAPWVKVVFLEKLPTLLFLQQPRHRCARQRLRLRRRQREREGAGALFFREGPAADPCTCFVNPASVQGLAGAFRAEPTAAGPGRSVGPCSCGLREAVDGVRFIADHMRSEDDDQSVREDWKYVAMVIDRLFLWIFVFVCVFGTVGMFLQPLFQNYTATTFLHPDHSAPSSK

| Compound | inhibition at 0.1 µM [1] | inhibition at 0.1 µM [2] | inhibition at 0.1 µM [3] | Ki ([1]; full concentration effect) | Ki ([2]; full concentration effect, 2.5 nM [^3H]MLA (footnote)) |
| --- | --- | --- | --- | --- | --- |
| CCCCc1ccc(C#CCC[n+]2cccc(C)c2)cc1 | 0% | 0% | 11% | – | – |
| Cc1ccc[n+](CCCC#Cc2ccc(-c3ccccc3)cc2)c1 | 0% | 2% | 41% | – | – |
| Cc1cc(C)c[n+](CCCCCCCCCCCCCc2cccnc2)c1 | 0% | 0% | 35% | – | – |
| Cc1cc[n+](CCCC#Cc2ccc(-c3ccccc3)cc2)cc1C | 0% | 8% | 20% | – | – |
| Cc1cc[n+](CCCCCCCCc2ccccc2)cc1 | – | – | 12% | > 100 µM | 27 µM |
| Cc1ccc[n+](CCCCCc2ccc(-c3ccccc3)cc2)c1 | 4% | 7% | 55% | – | – |

Reference: patent US8846937B2, “Mono quaternary ammonium salts and methods for modulating neuronal nicotinic acetylcholine receptors” (University of Kentucky Research Foundation, priority 2006, dated 2014)
